{
  "source": "patent US20040166509A1",
  "about": "“Detecting hormonally active compounds” (priority 2002, published 2004)",
  "tested_on": "liver cDNAs of adult male LMB",
  "experiment": "LMB gene arrays of SSH-derived cDNAs: liver of fish treated with androgens",
  "assay_type": "in vivo, largemouth bass (LMB)",
  "details": "DHT 62.5 μg/g, 11-KT 20 μg/g vs DMSO",
  "procedure": "For each cDNA clone, the general background of each membrane was subtracted from the average value of the duplicate spots on the membrane. The values were then normalized to the average value of seven cDNA clones specific to ribosomal genes and the fold change calculated by dividing the mean of each treatment by the mean of the control. Those genes which changed by 2-fold or more were graphed. Significant differences (p<0.05) were determined by ANOVA and secondary testing was done by using […].",
  "data": [
    {"smiles": "C[C@]12CCC(=O)C[C@@H]1CC[C@@H]1[C@@H]2CC[C@]2(C)[C@@H](O)CC[C@@H]12", "note": "[DHT, dihydrotestosterone]", "values": [
      {"measurement": "24-1 (LOC L1) change", "result": "down"},
      {"measurement": "53-1 (LOC B2) change", "result": "down"},
      {"measurement": "68-1 (LOC C2) change", "result": "down"},
      {"measurement": "97-8 (LOC F2) change", "result": "up (Those genes which changed by 2-fold or more were graphed)"},
      {"measurement": "ALDOLASE B (LOC K2) change", "result": "down"},
      {"measurement": "ALPHA 1 ANTI-TRYPSIN (LOC L2) change", "result": "down"},
      {"measurement": "ALPHA TUBULIN (LOC M2) change", "result": "down"},
      {"measurement": "APOL[…] (LOC C3) change", "result": "down"},
      {"measurement": "ATP SYNTHASE (LOC K7) change", "result": "up (Those genes which changed by 2-fold or more were graphed)"},
      {"measurement": "ATPASE 6 (LOC E3) change", "result": "up (Those genes which changed by 2-fold or more were graphed)"},
      {"measurement": "ATPASE SUBUNIT 6 (LOC F9) change", "result": "up (Those genes which changed by 2-fold or more were graphed)"},
      {"measurement": "COMPLEMENT C3 (LOC L3) change", "result": "down"},
      {"measurement": "CYSTATIN (LOC O3) change", "result": "down"},
      {"measurement": "ER GAMMA 5′ 2F (LOC L14) change", "result": "down"},
      {"measurement": "EST DHT64 (LOC D4) change", "result": "up (Those genes which changed by 2-fold or more were graphed)"},
      {"measurement": "EST P4_06 (LOC L8) change", "result": "up (Those genes which changed by 2-fold or more were graphed)"},
      {"measurement": "EST P4_D08 (LOC N8) change", "result": "up (Those genes which changed by 2-fold or more were graphed)"},
      {"measurement": "EST SEASONAL 9 (LOC D13) change", "result": "up (Those genes which changed by 2-fold or more were graphed)"},
      {"measurement": "EST SEASONAL 11 (LOC O6) change", "result": "down"},
      {"measurement": "EST SEASONAL 12 (LOC B8) change", "result": "up (Those genes which changed by 2-fold or more were graphed)"},
      {"measurement": "EST SEASONAL 42 (LOC H10) change", "result": "down"},
      {"measurement": "EST SEASONAL 51 (LOC K11) change", "result": "down"},
      {"measurement": "EST SEASONAL 55 (LOC M4) change", "result": "down"},
      {"measurement": "EST SEASONAL 56 (LOC F12) change", "result": "up (Those genes which changed by 2-fold or more were graphed)"},
      {"measurement": "EST SEASONAL 62 (LOC B14) change", "result": "up (Those genes which changed by 2-fold or more were graphed)"},
      {"measurement": "EST SEASONAL 64 (LOC H7) change", "result": "up (Those genes which changed by 2-fold or more were graphed)"},
      {"measurement": "EST SEASONAL 72 (LOC K12) change", "result": "down"},
      {"measurement": "EST SEASONAL 88 (LOC E12) change", "result": "up (Those genes which changed by 2-fold or more were graphed)"},
      {"measurement": "EST SEASONAL 90 (LOC L9) change", "result": "down"},
      {"measurement": "EST SEASONAL F17 (LOC B9) change", "result": "down"},
      {"measurement": "EST SEASONAL F21 (LOC O13) change", "result": "down"},
      {"measurement": "ESTDHT60 (LOC F5) change", "result": "down"},
      {"measurement": "ESTP4_C04 (LOC G9) change", "result": "down"},
      {"measurement": "ESTP4_E01 (LOC K5) change", "result": "down"},
      {"measurement": "ESTP4_E06 (LOC D6) change", "result": "down"},
      {"measurement": "ESTP4_H07 (LOC K13) change", "result": "up (Those genes which changed by 2-fold or more were graphed)"},
      {"measurement": "GP3 11C (LOC K1) change", "result": "down"},
      {"measurement": "G[…] (LOC G5) change", "result": "down-regulated and down"},
      {"measurement": "HAPTOGLOBIN (LOC I5) change", "result": "down"},
      {"measurement": "HEPCIDIN (LOC J5) change", "result": "down"},
      {"measurement": "IGF-I (LOC M5) change", "result": "down"},
      {"measurement": "LDL RC (LOC J10) change", "result": "down"},
      {"measurement": "LMB24-1 (Unknown) differentially expressed by androgens", "result": "dn-reg DHT;"},
      {"measurement": "LMB53-1 (unknown) differentially expressed by androgens", "result": "Down-reg. E2;"},
      {"measurement": "LMB68-1 (hypothetical protein) differentially expressed by", "result": "Dn-reg DHT"},
      {"measurement": "LMB97 choriogenin-3 differentially expressed by androgens", "result": "Up-reg E2;"},
      {"measurement": "LMB112-1 cathepsin (Aspartic protease) differentially expressed by androgens", "result": "up-reg E; NP:"},
      {"measurement": "LMB151 vitellogenin receptor differentially expressed by", "result": "Dn-reg"},
      {"measurement": "LMB CIS-RETIN DEHYDRO (cis-retinol dehydrogenase) differentially expressed by", "result": "up-reg DHT"},
      {"measurement": "LMB EST--SEASONAL_64 differentially expressed by", "result": "up-reg DHT;"},
      {"measurement": "LMB EST--SEASONAL_72 differentially expressed by", "result": "Dn-reg DHT;"},
      {"measurement": "LMB EST--SEASONAL_88 differentially expressed by", "result": "up-reg DHT;"},
      {"measurement": "LMB EST--SEASONAL_90 differentially expressed by", "result": "dn-reg DHT"},
      {"measurement": "LMB EST--SEASONAL_F21 differentially expressed by", "result": "Dn-reg DHT"},
      {"measurement": "LMB EST-SEASONAL_55 differentially expressed by", "result": "Dn-reg 11-KT;"},
      {"measurement": "LMB EST-SEASONAL_56 differentially expressed by", "result": "up-reg DHT;"},
      {"measurement": "LMB GLUT-PEROX III (Glutathione peroxidase III) differentially expressed by", "result": "Dn-reg DHT"},
      {"measurement": "LMB LIV-REGER-PROT differentially expressed by", "result": "down by DHT"},
      {"measurement": "LMB RIKEN 1110001M01 differentially expressed by", "result": "up by 11KT;"},
      {"measurement": "LMB_ALPHA-TUBULIN (alpha tubulin) differentially expressed by", "result": "Dn-reg 11-kt;"},
      {"measurement": "LMB_ATPASE 6 (ATPase subunit 6) differentially expressed by", "result": "up-reg DHT"},
      {"measurement": "LMB_COMPLEMENT-C3 (Complement C3 precursor) differentially expressed by", "result": "Dn-reg DHT;"},
      {"measurement": "LMB_EST-SEASONAL_09 differentially expressed by", "result": "up-reg DHT;"},
      {"measurement": "LMB_EST-SEASONAL_12 differentially expressed by", "result": "up-reg DHT"},
      {"measurement": "LMB_EST-SEASONAL_51 differentially expressed by", "result": "dn 11-KT;"},
      {"measurement": "LMB_ESTDHT_62 differentially expressed by", "result": "up-reg DHT;"},
      {"measurement": "LMB_ESTP4-E01 differentially expressed by", "result": "down by DHT"},
      {"measurement": "LMB_HAPTOGLOBIN (Haptoglobin) differentially expressed by", "result": "Dn-reg DHT"},
      {"measurement": "LMB_HEPCIDIN (Hepcidin precursor) differentially expressed by", "result": "dn-reg DHT"},
      {"measurement": "LMB_LDL RC (LDL receptor) differentially expressed by", "result": "Dn-reg DHT;"},
      {"measurement": "LMB_LECTIN STL2 (Rhamnose binding lectin STL2) differentially expressed by", "result": "up-reg DHT"},
      {"measurement": "LMB_MITOCHON-ATP-SYNTHASE (ATP synthase alpha chain mitochondrial precursor) differentially expressed by", "result": "up-reg DHT"},
      {"measurement": "LMB_RXR INTERACT PROT (Retinoid X receptor interacting protein) differentially expressed by", "result": "Dn-reg 11-KT;"},
      {"measurement": "LMB_SOL-CAR-25A#5 (solute carrier family 25 alpha member 5) differentially expressed by", "result": "up-reg DHT;"},
      {"measurement": "LMB_SSAT (SSAT) differentially expressed by", "result": "up-reg DHT;"},
      {"measurement": "LMB_ZPC1 (ZPC1) differentially expressed by", "result": "up-reg DHT;"},
      {"measurement": "LMB_ZPC4 (ZPC4) differentially expressed by", "result": "up-reg DHT;"},
      {"measurement": "PTTP (LOC O10) change", "result": "up (Those genes which changed by 2-fold or more were graphed)"},
      {"measurement": "RETINOL DEHYDROGENASE (LOC M11) change", "result": "up (Those genes which changed by 2-fold or more were graphed)"},
      {"measurement": "RHAMNOSE BINDING LECTIN (LOC G13) change", "result": "up (Those genes which changed by 2-fold or more were graphed)"},
      {"measurement": "RIKEN 1110001M01 (LOC O11) change", "result": "up (Those genes which changed by 2-fold or more were graphed)"},
      {"measurement": "RIKEN 2700038C09 (LOC D12) change", "result": "down"},
      {"measurement": "RXR I[…] (LOC L11) change", "result": "down"},
      {"measurement": "SOLUTE CARRIER (LOC B13) change", "result": "up (Those genes which changed by 2-fold or more were graphed)"},
      {"measurement": "SSAT (LOC C13) change", "result": "up (Those genes which changed by 2-fold or more were graphed)"},
      {"measurement": "TFIID (change to liver regeration related protein) (LOC M12) change", "result": "down"},
      {"measurement": "TFIIIA (LOC J13) change", "result": "up (Those genes which changed by 2-fold or more were graphed)"},
      {"measurement": "UNNAMED PROTEIN (LOC C14) change", "result": "up (Those genes which changed by 2-fold or more were graphed)"},
      {"measurement": "VTG PRECURSOR (LOC D14) change", "result": "up (Those genes which changed by 2-fold or more were graphed)"},
      {"measurement": "VTG RC (LOC M14) change", "result": "down"},
      {"measurement": "ZPC1 (LOC H14) change", "result": "up (Those genes which changed by 2-fold or more were graphed)"},
      {"measurement": "ZPC4 (LOC I14) change", "result": "up (Those genes which changed by 2-fold or more were graphed)"},
      {"measurement": "warm water acclim (LOC E14) change", "result": "up (Those genes which changed by 2-fold or more were graphed)"}
    ]}
  ]
}
